Reference: US6475790B2, “Assay for screening agents that alter angiogenesis” (Biocure Limited, priority 1997, dated 2002)
“Also recorded” adds a separate entry of the source.

Tested on: co-culture of Human Umbilical Vein Endothelial Cells (HUVEC) with Human Adult Dermal Fibroblasts
Assay: multicellular in vitro angiogenesis (tubule) assay, dual culture of HUVEC and fibroblasts
Assay type: cell-based
Conditions: VEGF 10 ngml^-1 added at the start and at each medium change; 14 days; von Willebrand factor immunoassay
Description: The assay system involves co-culture of Human Umbilical Vein Endothelial Cells (HUVEC) with Human Adult Dermal Fibroblasts. Under the conditions provided the cells form a series of anastomosed tubules.
The Human Umbilical Vein Endothelial Cells (HUVEC) are commercially available from suitable outlets and in this case are bought in cryopreserved form. Prior to employment in the tubule assay, the cells are routinely passed and cultured in any suitable commercially available Endothelial Growth Medium, EGM, containing 2% foetal calf serum. The HUVEC are used at passes 2 to 6 in the assay.
The Human Adult Dermal Fibroblasts are cultured from skin samples which may be obtained from local hospitals. […]
The tissue culture treated vessels to be used in the assay are equilibrated by pre-incubation with EGM, plus and minus treatments, for a period of 30 minutes at 37° C., 5% CO2 humidified atmosphere. […] The cells are resuspended in EGM and counted. […] The techniques and materials involved in culturing endothelial cells are well known to persons of skill in the art, and are readily available from standard texts. […]
Visualization of the tubules is accomplished most readily by an immunoassay that targets a cell marker on one or both of the cells being cultured. […]

## VEGF
  tubule formation: marked increase; also recorded: much enhanced
